# Measurements as given in ChEMBL document CHEMBL3425501, “Synthesis and Evaluation of Quinazolines as Inhibitors of the Bacterial Cell Division Protein FtsZ” (ACS Med Chem Lett, 2015).
# pEC50, pIC50: −log10 of the molar value. Activity calls are given as the source filed them. The calls are words filed in the database; no cut-off is given here.
# Molecular target: T1, Cell division protein FtsZ (Escherichia coli K-12, UniProt P0A9A6)
# T1 sequence (P0A9A6 whole entry): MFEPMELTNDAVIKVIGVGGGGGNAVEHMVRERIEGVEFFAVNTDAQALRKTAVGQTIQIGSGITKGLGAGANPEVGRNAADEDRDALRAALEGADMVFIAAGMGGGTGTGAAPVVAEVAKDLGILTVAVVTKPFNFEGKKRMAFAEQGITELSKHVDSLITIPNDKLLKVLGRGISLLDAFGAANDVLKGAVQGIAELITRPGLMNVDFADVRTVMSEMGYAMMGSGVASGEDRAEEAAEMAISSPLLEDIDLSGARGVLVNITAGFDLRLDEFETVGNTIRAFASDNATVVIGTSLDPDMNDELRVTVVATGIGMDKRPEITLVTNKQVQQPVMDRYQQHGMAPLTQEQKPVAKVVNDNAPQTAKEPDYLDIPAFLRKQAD
# Assay: Inhibition of Escherichia coli FtsZ GTPase activity after 5 mins by enzyme-coupled inhibition assay
row,SMILES,pIC50
1,CN(C)CCNc1nc(/C=C/c2ccc(Cl)cc2)nc2ccc(Br)cc12,4.52
2,COCCNc1nc(/C=C/c2ccc(Cl)cc2)nc2cc3ccccc3cc12,< 3.89
3,Cc1ccc2nc(/C=C/c3ccc(Cl)cc3)nc(NCCN)c2c1,4.57
4,Cc1ccc2nc(C(=O)Nc3ccc(Cl)cc3)nc(NCCN)c2c1,< 3.89
5,Cc1ccc2nc(C(=O)NCc3ccc(Cl)cc3)nc(NCCN(C)C)c2c1,< 3.89
6,CN(C)CCNc1nc(/C=C/c2ccc(Cl)cc2)nc2ccc(-c3cccs3)cc12,< 3.89
7,CC(=O)NCCNc1nc(/C=C/c2ccc(Cl)cc2)nc2cc3ccccc3cc12,< 3.89
8,CN(C)CCNc1nc(/C=C/c2ccc(Cl)cc2)nc2ccc(-c3ccccc3)cc12,4.55
9,CC(C)(C)OC(=O)CNc1nc(/C=C/c2ccc(Cl)cc2)nc2cc3ccccc3cc12,< 3.89
10,CN(C)CCOc1nc(/C=C/c2ccc(Cl)cc2)nc2cc3ccccc3cc12,4.59
11,CC(C)(C)OC(=O)NCCNc1nc(/C=C/c2ccc(Cl)cc2)nc2cc3ccccc3cc12,< 3.89
12,CN(C)CCNc1nc(/C=C/c2ccc(N=[N+]=[N-])cc2)nc2cc3ccccc3cc12,4.85
13,Cc1cccc2nc(/C=C/c3ccc(Cl)cc3)nc(NCCN(C)C)c12,< 3.89
14,CN(C)CCNc1nc(/C=C/c2ccc(Cl)cc2)nc2ccc(C3=CCCCC3)cc12,4.31
15,NCCNc1nc(/C=C/c2ccc(Cl)cc2)nc2cc3ccccc3cc12,5.05
16,COCCNc1nc(/C=C/c2ccc(Cl)cc2)nc2ccc(C)cc12,< 3.89
17,CN(C)CCNc1nc(/C=C/c2ccc(Cl)cc2)nc2ccc(-c3ccc4ccccc4c3)cc12,4.24
18,CN(C)CCNc1nc(/C=C/c2ccc(Cl)cc2)nc2ccc(C(=O)c3ccccc3)cc12,4.07
19,COCCCNc1nc(/C=C/c2ccc(Cl)cc2)nc2cc3ccccc3cc12,< 3.89
20,COc1cc2nc(/C=C/c3ccc(Cl)cc3)nc(NCCN(C)C)c2cc1OC,4.00
21,CN(C)CCNc1nc(/C=C/c2ccc(Cl)cc2)nc2ccccc12,< 3.89
22,C[N+](C)(C)CCNc1nc(/C=C/c2ccc(Cl)cc2)nc2cc3ccccc3cc12,4.28
23,Cc1ccc2nc(/C=C/c3ccc(Cl)cc3)nc(NCCN(C)C)c2c1,4.62
24,Cc1ccc2nc(/C=C/c3ccc(Cl)cc3)nc(NCCNC(=O)OC(C)(C)C)c2c1,< 3.89
25,CN(C)CCNc1nc(/C=C/c2ccc(I)cc2)nc2cc3ccccc3cc12,4.62
26,CN(C)CCNc1nc(/C=C/c2ccc(Cl)cc2)nc2ccc(I)cc12,4.02
27,CN(C)CCNc1nc(/C=C/c2ccc(Cl)cc2)nc2ccc(-c3ccncc3)cc12,4.52
28,CSCCNc1nc(/C=C/c2ccc(Cl)cc2)nc2cc3ccccc3cc12,< 3.89
29,CN(C)CCCNc1nc(/C=C/c2ccc(Cl)cc2)nc2cc3ccccc3cc12,4.19
30,CN(C)CCNc1nc(/C=C/c2ccc(Cl)cc2)nc2cc(C(F)(F)F)ccc12,< 3.89

# Molecular target: not listed separately
# Assay: Inhibition of bacterial FtsZ GTPase activity (unknown origin)
row,SMILES,pIC50
1,CCN(CC)CCNc1nc(/C=C/c2ccc(Cl)cc2)nc2cc3ccccc3cc12,4.62
2,CN(C)CCNc1nc(/C=C/c2ccc(Cl)cc2)nc2cc3ccccc3cc12,4.92

# Molecular target: T2, Cell division protein FtsZ (Bacillus subtilis (strain 168), UniProt P17865)
# T2 sequence (P17865 whole entry): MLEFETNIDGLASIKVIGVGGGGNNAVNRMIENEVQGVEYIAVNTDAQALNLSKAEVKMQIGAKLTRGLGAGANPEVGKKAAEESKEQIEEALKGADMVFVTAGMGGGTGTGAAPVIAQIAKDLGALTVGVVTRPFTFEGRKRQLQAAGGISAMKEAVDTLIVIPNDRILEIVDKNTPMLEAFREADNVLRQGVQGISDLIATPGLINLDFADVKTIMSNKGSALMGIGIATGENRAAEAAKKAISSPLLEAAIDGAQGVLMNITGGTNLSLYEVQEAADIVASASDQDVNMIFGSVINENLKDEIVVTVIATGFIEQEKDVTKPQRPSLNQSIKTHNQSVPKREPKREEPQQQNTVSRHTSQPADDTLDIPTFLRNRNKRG
# Assay: Inhibition of Bacillus subtilis FtsZ GTPase activity after 5 mins by enzyme-coupled inhibition assay
row,SMILES,pIC50
1,Cc1ccc2nc(-c3ccc4ccccc4c3)nc(NCCN(C)C)c2c1,< 3.89
2,Cc1ccc2nc(NCc3ccccc3)nc(NCCN(C)C)c2c1,< 3.89
3,Cc1ccc2nc(/C=C/c3ccc(Br)cc3)nc(NCCN(C)C)c2c1,< 3.89
4,Cc1ccc2nc(/C=C/c3ccc(I)cc3)nc(NCCN(C)C)c2c1,< 3.89
5,Cc1ccc2nc(-c3cccs3)nc(NCCN(C)C)c2c1,< 3.89
6,Cc1ccc2nc(/C=C/c3ccc(C(F)(F)F)cc3)nc(NCCN(C)C)c2c1,< 3.89
7,Cc1ccc2nc(N)nc(NCCN(C)C)c2c1,< 3.89
8,Cc1ccc2nc(-c3cc4ccccc4o3)nc(NCCN(C)C)c2c1,< 3.89
9,Cc1ccc2nc(/C=C/c3ccc(C(C)(C)C)cc3)nc(NCCN(C)C)c2c1,< 3.89
10,Cc1ccc2nc(NCc3ccc(Cl)cc3)nc(NCCN(C)C)c2c1,< 3.89
11,COc1ccc(-c2nc(NCCN(C)C)c3cc(C)ccc3n2)cc1,< 3.89
12,Cc1ccc2nc(-c3ccc(Cl)cc3)nc(NCCN(C)C)c2c1,< 3.89

# Molecular target: T3, Cell division protein FtsZ (Escherichia coli K-12) (UniProt P0A9A6)
# T3 sequence (whole entry): T1 sequence (P0A9A6 whole entry)
# Assay: Competitive inhibition of Escherichia coli FtsZ GTPase activity after 5 mins by enzyme-coupled inhibition assay in presence of 10 to 1250 uM GTP
row,SMILES,inhibition
1,CCN(CC)CCNc1nc(/C=C/c2ccc(Cl)cc2)nc2cc3ccccc3cc12,inactive

# Molecular target: T4, Cell division protein FtsZ (Staphylococcus aureus, UniProt P0A031)
# T4 sequence (P0A031 whole entry): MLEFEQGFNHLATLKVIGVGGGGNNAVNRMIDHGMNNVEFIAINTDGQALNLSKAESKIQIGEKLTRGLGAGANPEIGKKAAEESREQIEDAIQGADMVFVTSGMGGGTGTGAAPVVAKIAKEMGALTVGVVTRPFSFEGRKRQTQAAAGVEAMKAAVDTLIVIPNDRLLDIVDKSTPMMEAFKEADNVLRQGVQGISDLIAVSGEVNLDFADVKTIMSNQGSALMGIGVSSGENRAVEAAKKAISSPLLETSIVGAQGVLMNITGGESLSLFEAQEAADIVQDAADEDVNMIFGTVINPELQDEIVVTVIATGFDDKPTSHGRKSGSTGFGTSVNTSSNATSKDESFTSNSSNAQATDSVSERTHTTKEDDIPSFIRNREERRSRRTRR
# Assay: Activation of Staphylococcus aureus FtsZ GTPase activity
row,SMILES,pEC50
1,NC(=O)c1c(F)ccc(OCc2nc3cc(Cl)cnc3s2)c1F,5.40
